Measured values from ChEMBL document CHEMBL5131559, “Discovery and Preclinical Profiling of GSK3839919, a Potent HIV-1 Allosteric Integrase Inhibitor” (ACS Med Chem Lett, 2022).

Legend:
[1] = AUC (0 to infinity) in Sprague-Dawley rat at 5 mg/kg, po by LC-MS/MS analysis; type: ADME, organism-based; parameters: time infinity, dose 5 mg/kg, route po; conditions: in vivo
[2] = Clearance in cynomolgus monkey at 1 mg/kg, iv by LC-MS/MS analysis; type: ADME, organism-based, Macaca fascicularis; conditions: in vivo
[3] = Oral bioavailability in Sprague-Dawley rat at 5 mg/kg by LC-MS/MS analysis; type: ADME, organism-based; conditions: in vivo
[4] = Cmax in rat at 50 mg/kg,po qd for 1 week; type: ADME, organism-based; parameters: time 1 weeks, dose 50 mg/kg, route po; conditions: in vivo
[5] = tested on: Human immunodeficiency virus 1; test: Antiviral activity against recombinant HIV1 NLRep-Rluc harbouring polymorphic T124/V125 integrase infected in human MT-2 cells assessed as inhibition of virus growth in presence of fetal bovine serum by measuring luciferase activity after 4 days; type: functional, organism-based; conditions: Human immunodeficiency virus 1, NLRep, MT2, 96 h
[6] = Oral bioavailability in CD-1 mouse at 5 mg/kg by LC-MS/MS analysis; type: ADME, organism-based; conditions: in vivo
[7] = Clearance in Beagle dog at 1 mg/kg, iv by LC-MS/MS analysis; type: ADME, organism-based, Canis lupus familiaris; conditions: in vivo
[8] = Toxicity in human Huh-7 cells assessed as fold change in lipid droplet count at 20 uM incubated for 48 hrs by plate reader assay; type: cell-based; conditions: hepatoma cell line
[9] = tested on: Human immunodeficiency virus 1; test: Antiviral activity against recombinant HIV1 NLRep-Rluc harbouring polymorphic N124/A125 integrase infected in human MT-2 cells assessed as inhibition of virus growth in presence of fetal bovine serum by measuring luciferase activity after 4 days; type: functional, organism-based; conditions: Human immunodeficiency virus 1, NLRep, MT2, 96 h
[10] = tested on: Human immunodeficiency virus 1; test: Antiviral activity against recombinant HIV1 NLRep-Rluc harbouring polymorphic T124/T125 integrase infected in human MT-2 cells assessed as inhibition of virus growth in presence of fetal bovine serum by measuring luciferase activity after 4 days; type: functional, organism-based; conditions: Human immunodeficiency virus 1, NLRep, MT2, 96 h
[11] = Toxicity in human Huh-7 cells assessed as fold change in lipid droplet count at 10 uM incubated for 48 hrs by plate reader assay; type: cell-based; conditions: huh-7, 48 h
[12] = Oral bioavailability in Beagle dog at 2 mg/kg by LC-MS/MS analysis; type: ADME, organism-based, Canis lupus familiaris; conditions: in vivo
[13] = tested on: Human immunodeficiency virus 1; test: Antiviral activity against recombinant HIV1 NLRep-Rluc harbouring polymorphic N124/T125 integrase infected in human MT-2 cells assessed as inhibition of virus growth in presence of fetal bovine serum by measuring luciferase activity after 4 days; type: functional, organism-based; conditions: Human immunodeficiency virus 1, NLRep, MT2, 96 h
[14] = Toxicity in rat assessed as hepatocellular vacuolation at 200 mg/kg,po for 1 week; type: organism-based; conditions: in vivo, 168 h, time 1 weeks
Hepatoma cell line = test: Cytotoxicity against rat Hepatoma cell line at 40 to 80 uM; type: toxicity, cell-based; conditions: dose 40-80 µM
[15] = Cytotoxicity against human MT2 cells; type: toxicity, cell-based
[16] = Clearance in CD-1 mouse at 1 mg/kg, iv by LC-MS/MS analysis; type: ADME, organism-based; conditions: in vivo
[17] = AUC (0 to infinity) in CD-1 mouse at 5 mg/kg, po by LC-MS/MS analysis; type: ADME, organism-based; parameters: time infinity, dose 5 mg/kg, route po; conditions: in vivo
[18] = AUC (0 to infinity) in cynomolgus monkey at 2 mg/kg, po by LC-MS/MS analysis; type: ADME, organism-based, Macaca fascicularis; parameters: time infinity, dose 2 mg/kg, route po; conditions: in vivo
[19] = Clearance in Sprague-Dawley rat at 1 mg/kg, iv by LC-MS/MS analysis; type: ADME, organism-based; conditions: in vivo
[20] = AUC in rat at 50 mg/kg,po qd for 1 week; type: ADME, organism-based; parameters: dose 50 mg/kg, time 1 weeks, route po; conditions: in vivo, 168 h
[21] = Toxicity in rat Hepatoma cell line assessed as fold change in lipid droplet count at 10 uM incubated for 48 hrs by plate reader assay; type: cell-based
[22] = Oral bioavailability in cynomolgus monkey at 2 mg/kg by LC-MS/MS analysis; type: ADME, organism-based, Macaca fascicularis; conditions: in vivo
Huh-7 = test: Cytotoxicity against human Huh-7 cells at 40 to 80 uM; type: toxicity, cell-based; conditions: huh-7, 80 µM, dose 40-80 µM
[23] = tested on: Human immunodeficiency virus 1; test: Antiviral activity against recombinant HIV1 NLRep-Rluc harbouring polymorphic A124/T125 integrase infected in human MT-2 cells assessed as inhibition of virus growth in presence of fetal bovine serum by measuring luciferase activity after 4 days; type: functional, organism-based; conditions: Human immunodeficiency virus 1, NLRep, MT2, 96 h
[24] = AUC (0 to infinity) in Beagle dog at 2 mg/kg, po by LC-MS/MS analysis; type: ADME, organism-based, Canis lupus familiaris; parameters: time infinity, dose 2 mg/kg, route po; conditions: in vivo
[25] = tested on: Human immunodeficiency virus 1; test: Antiviral activity against recombinant HIV1 NLRep-Rluc harbouring polymorphic A124/A125 integrase infected in human MT-2 cells assessed as inhibition of virus growth in presence of fetal bovine serum by measuring luciferase activity after 4 days; type: functional, organism-based; conditions: Human immunodeficiency virus 1, NLRep, MT2, 96 h
[26] = tested on: Human immunodeficiency virus 1; test: Antiviral activity against recombinant HIV1 NLRep-Rluc harbouring polymorphic T124/A125 integrase infected in human MT-2 cells assessed as inhibition of virus growth in presence of fetal bovine serum by measuring luciferase activity after 4 days; type: functional, organism-based; conditions: Human immunodeficiency virus 1, NLRep, MT2, 96 h
[27] = Metabolic stability in human liver microsomes assessed as parent compound disappearance by measuring half life at 0.5 uM in presence of NADPH by LC-MS/MS analysis; type: ADME, Microsome
[28] = tested on: Human immunodeficiency virus 1; test: Antiviral activity against recombinant HIV1 NLRep-Rluc harbouring polymorphic T124/T125 integrase infected in human MT-2 cells assessed as fold change in inhibition of virus growth in presence of fetal bovine serum by measuring luciferase activity after 4 days; type: functional; parameters: reference not given here; conditions: time 4 day

Structure (SMILES): Cc1cccc(Cl)c1CN1CCc2cc(-c3c(C)nc(C)c([C@H](OC(C)(C)C)C(=O)O)c3N3CCC(C)(C)CC3)ccc2C1
- AUC(0-inf) [1]: 14.9 µM·h
- clearance [2]: 3.3 mL/min/kg
- bioavailability [3]: 35%
- Cmax [4]: 32 µM
- EC50 [5]: 3.2 nM
- bioavailability [6]: 72%
- clearance [7]: 0.5 mL/min/kg
- fold change (FC) [8]: 9.1
- EC50 [9]: 7.5 nM
- EC50 [10]: 3.5 nM
- fold change (FC) [11]: 4.1
- bioavailability [12]: 90%
- EC50 [13]: 5.8 nM
- Activity [14]: Toxic
- Activity (Hepatoma cell line): Toxic
- CC50 [15]: 22500 nM
- clearance [16]: 3.9 mL/min/kg
- AUC(0-inf) [17]: 30.3 µM·h
- AUC(0-inf) [18]: 5.4 µM·h
- clearance [19]: 3.5 mL/min/kg
- AUC [20]: 335 µM·h
- fold change (FC) [21]: 3.7
- bioavailability [22]: 58%
- Activity (Huh-7): Toxic
- EC50 [23]: 5.8 nM
- AUC(0-inf) [24]: 104 µM·h
- EC50 [25]: 6.5 nM
- EC50 [26]: 5.4 nM

Structure (SMILES): Cc1nc(C)c([C@H](OC(C)(C)C)C(=O)O)c(N2CCC(C)(C)CC2)c1-c1ccc2c(c1)CCN(c1nc3cnccc3s1)C2
- AUC(0-inf) [1]: 10.8 µM·h
- bioavailability [3]: > 100%
- EC50 [9]: 2.6 nM
- EC50 [10]: 1.5 nM
- CC50 [15]: ≥ 17000 nM
- clearance [19]: 14.8 mL/min/kg

Structure (SMILES): Cc1nc(C)c([C@H](OC(C)(C)C)C(=O)O)c(N2CCC(C)(C)CC2)c1-c1ccc2c(c1)CCN(c1nccc(-c3cnccn3)n1)C2
- AUC(0-inf) [1]: 23.7 µM·h
- bioavailability [3]: 38%
- EC50 [9]: 7.9 nM
- EC50 [10]: 2.2 nM
- CC50 [15]: ≥ 17000 nM
- clearance [19]: 2.1 mL/min/kg

Structure (SMILES): Cc1nc(C)c([C@H](OC(C)(C)C)C(=O)O)c(N2CCC(C)(C)CC2)c1C1=CCN(CCCc2ccc(F)cc2)CC1
- EC50 [10]: 7.6 nM
- half-life at 0.5 µM [27]: 35.5 min
- CC50 [15]: ≥ 22000 nM
- fold change (FC) [28]: 4.8

Structure (SMILES): Cc1nc(C)c([C@H](OC(C)(C)C)C(=O)O)c(N2CCC(C)(C)CC2)c1-c1cnc(OCCc2ccc(F)cc2)nc1
- EC50 [10]: 9 nM
- half-life at 0.5 µM [27]: 22 min
- CC50 [15]: ≥ 22000 nM
- fold change (FC) [28]: 4.8

Structure (SMILES): Cc1nc(C)c([C@H](OC(C)(C)C)C(=O)O)c(N2CCC(C)(C)CC2)c1-c1ccc2c(c1)CCN(Cc1ccc(F)cc1)C2
- EC50 [10]: 5.9 nM
- half-life at 0.5 µM [27]: 55 min
- CC50 [15]: ≥ 22000 nM
- fold change (FC) [28]: 3.7

Structure (SMILES): Cc1nc(C)c([C@H](OC(C)(C)C)C(=O)O)c(N2CCC(C)(C)CC2)c1-c1ccc(OCCc2ccc(F)cc2)cc1
- EC50 [9]: 3.8 nM
- EC50 [10]: 1.7 nM
- fold change (FC) [11]: 3.7
- half-life at 0.5 µM [27]: > 120 min
- CC50 [15]: ≥ 22000 nM
- fold change (FC) [21]: 4

Structure (SMILES): Cc1nc(C)c([C@H](OC(C)(C)C)C(=O)O)c(N2CCC(C)(C)CC2)c1-c1ccc2c(c1)CCN(Cc1cccc(F)c1F)C2
- AUC(0-inf) [1]: 8.4 µM·h
- bioavailability [3]: 50%
- EC50 [9]: 13.6 nM
- EC50 [10]: 4.2 nM
- CC50 [15]: ≥ 24000 nM
- clearance [19]: 8.1 mL/min/kg

Structure (SMILES): Cc1nc(C)c([C@H](OC(C)(C)C)C(=O)O)c(N2CCC(C)(C)CC2)c1-c1ccc2c(c1)CC[C@@H](Cc1ccc(F)cc1)O2
- EC50 [9]: 7.3 nM
- EC50 [10]: 1.5 nM
- CC50 [15]: ≥ 22000 nM
- fold change (FC) [28]: 5
